Assay results as given in patent publication EP2735303A1, “Hair growth compositions and methods” (Pilosciences, priority 2012, dated 2014).

Tests used:
human skin explants = assay: Morphology of the hair follicle in human skin explants ex vivo after topical application (histology); assay type: cell-based; parameters: key to Upper part (quotation of morphological alterations) / Sebaceous gland (quotation of morphological alterations): -: no alteration; +: weak; ++: moderate; +++: significant; ++++: very significant; +++++: strong
Protocol: Anti-HGP antibodies were produced (see example A) or obtained from commercially available sources, and investigated for their ability to inhibit body hair growth ex vivo using human skin explants.
The activity of the antibodies was assessed based on their effect on the morphology and growth of the body hair.
The activity of keratinase A (Sigma) was investigated in parallel. Eflornithin (Calbiochem) was used as a reference.
40 explants of a diameter of about 11 mm (± 1 mm) were obtained by abdominoplasty from 2 men. The explants were placed in survival in the BEM (BIO-EC's Explants Medium) at 37° C in a humid atmosphere enriched with 5% CO2.
The treatment was performed at D0, D1, D4, D6 and D8 by topical application of 5 µl of diluted antibody used at final concentrations of 30 to 100 µg/mL in PBS. Eflornithin was used at a concentration of 100 mg/mL and keratinase at 20 mg/mL. A negative control experiment was performed using PBS only.
At D0, T0 lot explants were removed and cut in half. Half was fixed in buffered formalin and the other half was frozen at -80 ° C. A D8, 2 explants from each batch were taken and treated in the same manner.
After 24 hours of fixation in buffered formalin, the samples were dried and impregnated with paraffin using an automatic dehydration Leica TP 1010 according to the procedure MO-H-149, according to our procedure using a station coating Leica EG 1160. Sections of 5 microns were performed, using a microtome kind Minot, Leica RM 2125 and mounted on silanized glass slides Superfrost ® plus. Microscopic observations were performed by microscopy optical transmission. The shots were taken with a Leica Orthoplan DMLB or with a digital camera Olympus DP72 driven software acquisition and archiving Olympus CellD. The morphology was examined on paraffin sections stained with Masson's trichrome Goldner variant.

[1] = tested on: isolated human hair follicles; assay: Hair growth of isolated human hair follicles maintained in vitro (morphometric study); assay type: cell-based; details: versus no application and Minoxidil 2% 10 µmol; application 2h00 at 37°C; length at D0, D4, D6, D8
Protocol: Hair growth is measured using standard morphometric studies on isolated human hair follicles maintained in vitro (Philpott, 1999). Hair follicles are micro-dissected in a human scalp and maintained in a culture medium. Hair follicles in anagen phase are selected for the study. Each tested group is composed of 10-12 hair follicles.

NCCC[C@](N)(C(=O)O)C(F)F [R1, α-difluoromethylornithine]
Bulb: morphology (human skin explants; D8, topical application): comparable to that observed in the untreated group D8
Lower part of the hair follicle: morphology (human skin explants; D8, topical application): very slight cell alterations
Midsection, sebaceous glands: morphology of inner and outer root sheaths (human skin explants; D8, topical application): clear cellular alterations
Upper part, near the infundibulum: morphology of the epithelial sheaths (human skin explants; D8, topical application): sharp cellular alterations
morphology of the epidermis (human skin explants; D8, topical application): slightly altered with a slight spongiosis
Sebaceous gland (quotation of morphological alterations) (human skin explants; sebaceous gland region of the hair follicle, topical application D0, D1, D4, D6, D8, antibodies 30 to 100 µg/mL in PBS, Eflornithin 100 mg/mL, keratinase 20 mg/mL, D8): ++++
Upper part (quotation of morphological alterations) (human skin explants; upper part of the hair follicle near the infundibulum, topical application D0, D1, D4, D6, D8, antibodies 30 to 100 µg/mL in PBS, Eflornithin 100 mg/mL, keratinase 20 mg/mL, D8): ++++
Hair growth compared to Control Group 0 and to Control Group M [1]: significant hair growth retardation
